According to patent US20240261418A1, “SOS1 DEGRADING AGENT AND PREPARATION METHOD THEREFOR AND APPLICATION THEREOF” (SHANGHAI LEADINGTAC PHARMACEUTICAL CO. LTD., priority 2021, published 2024):

Biological target: T1, SOS1 protein (Homo sapiens, UniProt Q07889)
T1 sequence (Q07889 1-1333): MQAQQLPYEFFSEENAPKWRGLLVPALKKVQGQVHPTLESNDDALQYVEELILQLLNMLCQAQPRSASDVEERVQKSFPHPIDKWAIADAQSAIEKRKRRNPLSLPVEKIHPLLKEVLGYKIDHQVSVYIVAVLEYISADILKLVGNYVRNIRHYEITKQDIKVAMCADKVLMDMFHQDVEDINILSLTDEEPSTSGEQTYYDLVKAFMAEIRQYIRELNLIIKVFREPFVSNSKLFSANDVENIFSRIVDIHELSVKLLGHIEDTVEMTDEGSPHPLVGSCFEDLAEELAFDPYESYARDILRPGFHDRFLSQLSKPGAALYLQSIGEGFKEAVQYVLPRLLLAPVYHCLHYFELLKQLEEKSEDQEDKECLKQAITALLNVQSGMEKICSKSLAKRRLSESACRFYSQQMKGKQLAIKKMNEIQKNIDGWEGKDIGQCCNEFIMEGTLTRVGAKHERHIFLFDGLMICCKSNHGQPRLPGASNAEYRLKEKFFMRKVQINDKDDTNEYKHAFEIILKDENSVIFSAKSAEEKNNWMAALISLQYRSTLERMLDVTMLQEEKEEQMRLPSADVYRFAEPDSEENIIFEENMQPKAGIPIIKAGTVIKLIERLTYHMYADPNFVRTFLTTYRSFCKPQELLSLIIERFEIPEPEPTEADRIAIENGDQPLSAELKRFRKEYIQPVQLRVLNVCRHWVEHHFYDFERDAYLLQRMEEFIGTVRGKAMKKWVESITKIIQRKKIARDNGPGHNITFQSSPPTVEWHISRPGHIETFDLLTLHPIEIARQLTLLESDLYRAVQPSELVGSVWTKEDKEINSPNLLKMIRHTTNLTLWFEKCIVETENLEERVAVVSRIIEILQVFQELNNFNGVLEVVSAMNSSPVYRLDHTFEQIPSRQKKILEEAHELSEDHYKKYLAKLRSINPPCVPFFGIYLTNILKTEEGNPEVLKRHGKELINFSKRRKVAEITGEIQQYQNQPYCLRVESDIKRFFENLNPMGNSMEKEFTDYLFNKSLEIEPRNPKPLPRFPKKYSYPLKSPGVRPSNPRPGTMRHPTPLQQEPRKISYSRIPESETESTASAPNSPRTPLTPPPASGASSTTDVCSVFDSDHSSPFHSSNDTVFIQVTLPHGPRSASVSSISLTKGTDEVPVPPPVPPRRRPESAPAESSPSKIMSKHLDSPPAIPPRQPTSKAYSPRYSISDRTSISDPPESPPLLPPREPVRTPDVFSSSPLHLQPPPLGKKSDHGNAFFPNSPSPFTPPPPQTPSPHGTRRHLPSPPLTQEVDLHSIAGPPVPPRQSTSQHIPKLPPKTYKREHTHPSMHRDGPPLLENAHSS
Test: SOS1 degradation assay (Western blot) in A-427 cells
Type: cell-based
Set-up: host or cells: NCI-H358, A-427, SW-620, DLD-1 (human cancer cell lines)
Conditions: A-427 (KRAS G12D), 24 h; for DC50: read-out: A427 (G12D) DC50; for Dmax: read-out: A427 (G12D) Dmax
Experimental: Test Example 2: SOS1 Degradation Assay
The degradation of SOS1 by the compounds was investigated on KRAS G12C mutant human non-small cell lung cancer cells NCI-H358 (ATCC or Stem Cell Bank, Chinese Academy of Sciences), KRAS G12D mutant human lung cancer cells A-427 (ATCC), KRAS G12V mutant human colorectal adenocarcinoma cells SW-620 (ATCC), and KRAS G13D mutant human colorectal adenocarcinoma epithelial cells DLD-1 (ATCC). The specific procedures were as follows:
0.95 mL of cells were seeded into each well of a 24-well cell culture plate to achieve a cell density of 5×10^5 cells/well; the cell plate was incubated in an incubator at 37° C. with 5% CO2 overnight. Then 50 μL of the compound solution after dilution was added to each of the wells with the corresponding cells, so that the final concentration of the compound was in a range of 0.03-3000 nM. The final concentration of DMSO was 0.25%.
After dosing, the cell plate was incubated in an incubator at 37° C. with 5% CO2 for 24 h. The cell culture medium in the 24-well plate was removed, and the plate was washed twice with 1×PBS. 180 μL of RIPA (strong) lysis buffer (Beyotime, P0013B) supplemented with 1 mM phenylmethylsulfonyl fluoride, a protease inhibitor mixture (Beyotime, P1008), and a protease phosphatase inhibitor mixture (Beyotime, P1045) was added to lyse adherent NCI-H358 cells at the bottom of the cell culture plate. After the plate was left to stand on ice for 30 min, the protein lysate in each well was transferred to a 1.5 mL centrifuge tube and centrifuged at 15000 g for 20 min at 4° C. […] The concentration of total protein in the cell lysate supernatant was determined using the BCA Protein Quantification Kit (Tiangen, PA115-02). […]
The concentration of total protein in the cell lysate was determined by BCA. […] After the blocking, the PVDF membrane was incubated with an SOS1 primary antibody (Abcam, ab140621) at 4° C. overnight, washed with a TBST buffer (2.4 g of Tris, 8.8 g of NaCl, 1.5 mL of Tween 20, with pH adjusted to 7.4, with the volume brought to 1 L) for 30 min (10 min/time), incubated with a secondary antibody (Abcam, ab205718) at room temperature for 2 h, washed with a TBST buffer for 30 min (10 min/time), and finally incubated with Clarity Western ECL Substrate (BIO-RAD, 170-5061) for 5 min for luminescence and color development, and a chemiluminescence imaging system (Clinx, ChemiScope 6200 Touch) was used for color development and protein mapping. […] The gray correction value for each sample was calculated by the formula: gray correction value=(gray value of target protein/gray value of corresponding internal reference)×103. Then the degradation rate was calculated by comparing the gray correction value with the gray correction value of the control group. […]

## COc1cc2nc(C)nc(N[C@H](C)c3cc(-c4c(Cl)cccc4CN(C)C)cs3)c2cc1[C@H]1CC[C@H](C(=O)N2CCN(CC3CCC4(CC3)CCN(C(=O)c3ccc(Cl)c(N5CCC(=O)NC5=O)c3)CC4)CC2)CC1 [Example 1, 1-(2-chloro-5-(9-((4-((1R,4R)-4-(4-(((R)-1-(4-(2-chloro-6-((dimethylamino)methyl)phenyl)thien-2-yl)ethyl)amino)-7-methoxy-2-methylquinazolin-6-yl)cyclohexane-1-carbonyl)piperazin-1-yl)methyl)-3-azaspiro[5.5]undecane-3-carbonyl)phenyl)dihydropyrimidine-2,4(1H,3H)-dione]
  DC50: ≤ 50 nM
  Dmax: 80 to 100%

## COc1cc2nc(C)nc(N[C@H](C)c3cc(-c4c(Cl)cccc4CN(C)C)cs3)c2cc1[C@H]1CC[C@H](C(=O)N2CCC(CCOCC3CCN(C(=O)c4ccc(Cl)c(N5CCC(=O)NC5=O)c4)CC3)CC2)CC1 [Example 5, 1-(2-chloro-5-(4-((2-(1-((1R,4R)-4-(4-(((R)-1-(4-(2-chloro-6-((dimethylamino)methyl)phenyl)thien-2-yl)ethyl)amino)-7-methoxy-2-methylquinazolin-6-yl)cyclohexane-1-carbonyl)piperidin-4-yl)ethoxy)methyl)piperidine-1-carbonyl)phenyl)dihydropyrimidine-2,4(1H,3H)-dione]
  DC50: ≤ 50 nM
  Dmax: 50 to 80%
